Results published in patent US20050163841A1, “Compositions and dosage forms for enhanced absorption of 3-amino-n-butyl-phosphinic acid” (priority 2003, published 2005).
Where two headings read alike, the source gives them in different places.

Assays:
[1] = cited from earlier work; for dose-corrected AUC: read from FIG. 4 of Gleitner 1
[2] = test system: patients suffering from Mild Cognitive Impairment (MCI); details: 600 mg tid; cited from earlier work
[3] = Human pharmacokinetics of 3-aminopropyl-n-butyl-phosphinic acid (Gleitner 1); format: in vivo, Humans; details: implied from urinary excretion after oral administration

absorption through the oral route [3]: 38%
SMILES: CCCCP(=O)(O)CCCN [3-aminopropyl-n-butyl-phosphinic acid]
dose-corrected AUC ([1]; 600 mg dose): 40 μmol·h/(L·mmol)
dose-corrected AUC ([1]; 2100 mg dose): 20 μmol·h/(L·mmol)
reduction of drug systemic availability after food intake ([1]; after food intake): 30%
cumulative urinary excretion rate ([1]; within 24 hours of i.v. administration): 99.5+/−6.4 % of the dose
cumulative urinary excretion rate ([1]; within 24 hours of oral administration): 38+/−13 % of the dose
cognition in patients with Mild Cognitive Impairment [2]: showed improvements in multiple cognitive domains
